Test results taken from patent US20030022821A1, “Bioactive peptides” (priority 1998, published 2003).
≈ marks a conversion by molar mass, not a printed value. Where two headings read alike, the source gives them in different places. Values belong to the molecule of their own block, whether it stands above or below them. Square brackets hold non-standard residues; d marks the D form. Peptide text beside a SMILES is read from it. * marks the point of attachment. Trp(2-Pmc) = Cc1c(C)c(S(=O)(=O)c2[nH]c3ccccc3c2C[C@H](N)C(=O)O)c(C)c2c1OC(C)(C)CC2; Acm = CC(=O)NC*

How the values were obtained:
[1] = tested on: Escherichia coli ATCC 25922; type: cell-based
Protocol: (§1) The bacterial strains used were: Escherichia coli ATCC 25922 and Staphylococcus aureus ATCC 25923. All strains were stored at −70° C. The bacteria were grown in 2% Bacto Peptone water (Difco 1807-17-4). All tests were performed with bacteria in mid-logarithmic growth phase. Determination of the minimum inhibitory concentration (MIC) of the peptides for bacterial strains were performed in 1% Bacto Peptone water. A standard microdilution technique with an inoculum of 2×10^6 CFU/ml was used. All assays were performed in triplets. Since the peptides are positively charged and therefore could adhere to the plastic wells, we controlled the actual concentration of the peptides in the solution by HPLC. There was no difference between the concentration of the peptides before or after adding the solution to the plastic wells.

[2] = tested on: Staphylococcus aureus ATCC 25923; type: cell-based
Protocol: as §1

Molecule: CSCC[C@H](NC(=O)[C@H](CCCNC(=N)N)NC(=O)[C@H](Cc1c[nH]c2ccccc12)NC(=O)[C@H](CCC(N)=O)NC(=O)[C@H](Cc1c[nH]c2ccccc12)NC(=O)[C@H](CCCNC(=N)N)NC(=O)[C@H](CCCNC(=N)N)NC(=O)[C@H](CSCNC(C)=O)NC(=O)[C@H](CCCCN)NC(=O)[C@@H](N)Cc1ccccc1)C(=O)N[C@@H](CCCCN)C(=O)N[C@@H](CCCCN)C(=O)N[C@@H](C)C(=O)NCC(=O)N[C@@H](C)C(=O)O [LFB A13] (H-FKC(Acm)RRWQWRMKKAGA-OH)
MIC E. coli ([1]; ATCC 25922): 50 mg/L (≈ 24.7 µM)
MIC S. aureus ([2]; ATCC 25923): >200 mg/L

Molecule: CSCC[C@H](NC(=O)[C@H](CCCNC(=N)N)NC(=O)[C@H](Cc1c[nH]c2ccccc12)NC(=O)[C@H](CCC(N)=O)NC(=O)[C@H](Cc1c[nH]c2ccccc12)NC(=O)[C@H](CCCNC(=N)N)NC(=O)[C@H](CCCNC(=N)N)NC(=O)[C@H](CSCNC(C)=O)NC(=O)[C@@H](N)CCCCN)C(=O)N[C@@H](CCCCN)C(=O)N[C@@H](CCCCN)C(=O)N[C@@H](CC(C)C)C(=O)NCC(=O)N[C@@H](C)C(=O)O [LFB 18-31] (H-KC(Acm)RRWQWRMKKLGA-OH; N-terminus assumed)
MIC E. coli ATCC 25922 ([1]; ATCC 25922): 80 mg/L
MIC E. coli ATCC 25922 ([1]; Table 1, value in brackets): 43 µM
MIC E. coli ([1]; Table 11): 80 mg/L (≈ 41.7 µM)
MIC S. aureus ATCC 25923 ([2]; ATCC 25923): 200 mg/L
MIC S. aureus ATCC 25923 ([2]; Table 1, value in brackets): 108 µM
MIC S. aureus ([2]; Table 11): 200 mg/L (≈ 104 µM)

Molecule: CSCC[C@H](NC(=O)[C@H](C)NC(=O)[C@H](Cc1c[nH]c2ccccc12)NC(=O)[C@H](CCC(N)=O)NC(=O)[C@H](Cc1c[nH]c2ccccc12)NC(=O)[C@H](CCCNC(=N)N)NC(=O)[C@H](CCCNC(=N)N)NC(=O)[C@H](CSCNC(C)=O)NC(=O)[C@H](CCCCN)NC(=O)[C@@H](N)Cc1ccccc1)C(=O)N[C@@H](CCCCN)C(=O)N[C@@H](CCCCN)C(=O)N[C@@H](CC(C)C)C(=O)NCC(=O)N[C@@H](C)C(=O)O [LFB A9] (H-FKC(Acm)RRWQWAMKKLGA-OH)
MIC E. coli ([1]; ATCC 25922): 55 mg/L (≈ 27.8 µM)
MIC S. aureus ([2]; ATCC 25923): >200 mg/L

Molecule: CSCC[C@H](NC(=O)[C@H](CC(N)=O)NC(=O)[C@H](Cc1c[nH]c2ccccc12)NC(=O)[C@H](CCC(N)=O)NC(=O)[C@H](Cc1c[nH]c2ccccc12)NC(=O)[C@H](CCC(N)=O)NC(=O)[C@H](Cc1ccccc1)NC(=O)[C@H](CSCNC(C)=O)NC(=O)[C@H](CCCCN)NC(=O)[C@@H](N)[C@@H](C)O)C(=O)N[C@@H](CCCNC(=N)N)C(=O)N[C@@H](CCCCN)C(=O)N[C@H](C(=O)N[C@@H](CCCNC(=N)N)C(=O)NCC(=O)O)C(C)C [LFHW8, H2N-Thr-Lys-Cys-Phe-Gln-Trp-Gln-Trp-Asn-Met-Arg-Lys-Val-Arg-Gly-COOH] (H-TKC(Acm)FQWQWNMRKVRG-OH)
MIC E. coli ([1]; Table 4): 110 mg/L (≈ 53.9 µM)
MIC S. aureus ([2]; Table 4, unit assumed): > 1000 mg/L

Molecule: CSCC[C@H](NC(=O)[C@H](CCCNC(=N)N)NC(=O)[C@H](Cc1c(S(=O)(=O)c2c(C)c(C)c3c(c2C)CCC(C)(C)O3)[nH]c2ccccc12)NC(=O)[C@H](CCC(N)=O)NC(=O)[C@H](C)NC(=O)[C@H](CCCNC(=N)N)NC(=O)[C@H](CCCNC(=N)N)NC(=O)[C@H](CSCNC(C)=O)NC(=O)[C@H](CCCCN)NC(=O)[C@@H](N)Cc1ccccc1)C(=O)N[C@@H](CCCCN)C(=O)N[C@@H](CCCCN)C(=O)N[C@@H](CC(C)C)C(=O)NCC(=O)N[C@@H](C)C(=O)O [LFB A6 PMC] (H-FKC(Acm)RRAQ[Trp(2-Pmc)]RMKKLGA-OH)
MIC E. coli ([1]; ATCC 25922): 25 mg/L (≈ 11.3 µM)
MIC S. aureus ([2]; ATCC 25923): 17.5 mg/L (≈ 7.89 µM)

Results, then the molecule that gave them:

MIC E. coli ([1]; Table 4): > 1000 mg/L
MIC S. aureus ([2]; Table 4, unit assumed): > 1000 mg/L
Molecule: SKCRQWQSKIRRTNP [Native LFP, porcine region corresponding to LFB 17-31]

MIC E. coli ([1]; ATCC 25922): 150 mg/L (≈ 77.9 µM)
MIC S. aureus ([2]; ATCC 25923): >1000 mg/L
Molecule: CSCC[C@H](NC(=O)[C@H](C)NC(=O)[C@H](Cc1c[nH]c2ccccc12)NC(=O)[C@H](CCC(N)=O)NC(=O)[C@H](Cc1c[nH]c2ccccc12)NC(=O)[C@H](CCCNC(=N)N)NC(=O)[C@H](CC(C)C)NC(=O)[C@H](CSCNC(C)=O)NC(=O)[C@H](CCCCN)NC(=O)[C@H](C)N)C(=O)N[C@@H](CCCNC(=N)N)C(=O)N[C@@H](CCCCN)C(=O)N[C@@H](Cc1ccc(O)cc1)C(=O)NCC(=O)NCC(=O)O [LFM A1, 9 W8 Y13] (H-AKC(Acm)LRWQWAMRKYGG-OH; N-terminus and C-terminus assumed)
